Measured values taken from article PMC12592420, “A mismatch in enzyme-redox partnerships underlies divergent cytochrome P450 activities between human hepatocytes and microsomes” (Communications Biology, 2025).
“And” between values parts separate entries of the source, which are not always exact repeats. Equal values may be shown once. Values belong to the compound of their own block, whether it stands above or below them.

Experiments:
recombinant CYP3A4-POR = biological target: T1, recombinant CYP3A4-POR (Homo sapiens, UniProt P08684); assay: Savolitinib incubation with recombinant CYP3A4-POR Supersomes; format: in vitro ADME; conditions: CYP3A4 (CYP13A4 [sic]), savolitinib 1 µM, 1 h (Fig. 2c)
T1 construct: purchased 456202
Protocol: For detailed comparisons between recombinant CYP1A2 and CYP3A4 (Fig. 2B, C), Supersomes were used (CYP1A2, catalogue number 456203, CYP3A4, catalogue number 456202). […] The concentration of savolitinib metabolites M2 and M4 formed were determined from standard curves obtained by spiking the appropriate concentrations of M2 and M4 into recombinant enzymes (in the absence of NADPH) and processing in the same way as the samples.

[1] = Savolitinib metabolite (M2, M4) formation in NADPH-HLM (with BSA or cytosol where stated); format: in vitro ADME, human; parameters: [M4] / M2 average / M4 average: unit not given here; conditions: for M4 average / M2 average: average of duplicate (Suppl. Fig. 1); for [M4] / [M2]: savolitinib 1 µM
[2] = Incubations in HLM + NADPH from the same donor pool as S9; format: in vitro ADME, human; conditions: HLM (same donors as S9) + NADPH, savolitinib 1 µM, 1 h (Fig. 6aii)
Description: Liver S9 (lot 1810001, pool of 50, Xenotech) and HLM (pool of 50, lot 1810003, Xenotech) from the same pool of donors were purchased from Xenotech.

[3] = Metabolism of savolitinib in lysed hepatocytes + NADPH; format: in vitro ADME, human; conditions: savolitinib 1 µM, HH lysate + NADPH
Protocol: HH in Leibovitz buffer were centrifuged at 11,250 × g for 5 min to pellet the cells. Taking care not to disturb the pellet, all the media was removed using a pipette. Ice-cold water was added and the mixture vortex-mixed to resuspend the cells and stored at −80 °C for 5 min followed by sonication for 10 min to lyse the cells. The resuspended lysate final volume was equivalent to a final cell concentration of 1 million cells/mL (the same concentration used for intact cells experiments) in […] phosphate buffer pH 7.4 and NADPH (final 1 mM). After pre-incubating for 5 min at 37 °C, the reaction (metabolism of savolitinib) in the lysate was initiated by adding savolitinib (final 1 µM). […] Authentic standards (M2 and M4) were spiked into hepatocyte lysate and used to construct standard curves. The acetonitrile/hepatocyte lysate mixtures were centrifuged at 3000 × g for 10 min and 50 µl of the supernatant was mixed with 300 µl of water and 3 µL was injected into the mass spectrometer for analysis by multiple reaction monitoring.

in vitro [4] = conditions: human, microsomes, pH 7.4, NADPH_HLM_scaled_CLint,u
Protocol: (§1) Calculation and scaling of CLint,u was done using the equation below and 45 mg of microsomal protein per gram of liver. HLMCLint,u=ln2/x1/t1/2(min)xmLincubation/mgmicrosomalproteinx45mgmicrosomalprotein/gliverx21gliver/kg/Fuinc

in vitro [5] = conditions: human, microsomes, pH 7.4
Protocol: as §1

in vitro [6] = conditions: human, hepatocytes
[7] = Free fraction in HLM incubation, equilibrium dialysis; format: in vitro ADME, human; conditions: fraction unbound, measured or estimated by in silico models of Fuinc
rat hepatocytes = assay: Free fraction in rat hepatocytes as surrogate for HH, equilibrium dialysis; format: in vitro ADME; conditions: fraction unbound, measured or estimated by in silico models of Fuinc
physchem = conditions: pH 7.4
[8] = Intrinsic permeability in Caco-2 cells with efflux inhibited; conditions: human, Caco-2
human hepatocytes (HH) [9] = assay: Savolitinib metabolite (M2, M4) formation in human hepatocytes, with and without CYP inhibitors; format: in vitro ADME; conditions: savolitinib 1 µM, intact HH
Protocol: […]120millioncells/[…] […] Authentic standards (M2 and M4) were spiked into hepatocytes (at 1 million cells/mL) and used to construct standard curves. Control marker reactions (final 1 μM for each compound) specific for CYP1A2 (phenacetin to form paracetamol), CYP2C19 (S-mephenytoin to form 4-OH mephenytoin) and CYP2D6 (dextromethorphan to form dextrorphan) were incubated in the presence and absence of the specific inhibitors to confirm the expected enzyme inhibition. […] After a pre-incubation at 37 °C for 5 min, the reaction was started by adding the test compound. […] After centrifugation at 3000 × g for 10 min, 200 μL of the supernatant was mixed with 400 μL of water before analysis for metabolites.

[10] = Incubations in human liver S9 + NADPH (same donor pool as HLM); format: in vitro ADME; conditions: S9 + NADPH, savolitinib 1 µM, 1 h (Fig. 6aii)
human hepatocytes (HH) [11] = assay: Savolitinib metabolite (M2, M4) formation in human hepatocytes, with and without CYP inhibitors; format: in vitro ADME; conditions: savolitinib 5 µM, 1 h, only peak above this level
[12] = healthy volunteers, N-demethylation to M2; cited from earlier work
[13] = 60min, cytosol 0 mg/mL, single measurements (Suppl. Fig. 1)
[14] = 60min, cytosol 4 mg/mL, single measurements (Suppl. Fig. 1)
[15] = 60min, cytosol 10 mg/mL, single measurements (Suppl. Fig. 1)

T1 sequence (P08684 whole entry): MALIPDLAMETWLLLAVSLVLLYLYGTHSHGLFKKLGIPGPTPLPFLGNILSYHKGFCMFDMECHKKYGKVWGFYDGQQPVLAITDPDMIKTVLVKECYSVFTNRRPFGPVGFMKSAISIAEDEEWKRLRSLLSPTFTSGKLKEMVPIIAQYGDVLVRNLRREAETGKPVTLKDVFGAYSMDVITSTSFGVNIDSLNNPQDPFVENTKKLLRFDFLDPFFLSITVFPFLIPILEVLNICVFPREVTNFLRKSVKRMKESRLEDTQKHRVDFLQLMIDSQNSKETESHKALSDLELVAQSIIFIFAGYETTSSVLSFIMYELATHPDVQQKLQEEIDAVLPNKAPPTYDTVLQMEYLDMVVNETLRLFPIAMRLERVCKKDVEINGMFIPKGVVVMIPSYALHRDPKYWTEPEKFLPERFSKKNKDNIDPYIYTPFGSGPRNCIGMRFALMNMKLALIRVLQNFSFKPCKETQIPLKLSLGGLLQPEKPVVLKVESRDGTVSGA

[M4] nM formed by recombinant CYPs (recombinant CYP3A4-POR): 208.8 nM and 197.55 nM and 216.7 nM | M4 average ([1]; 60min, cytosol 0 mg/mL): 45.7 and 50.45 and 48.25 | M4 average ([1]; 60min, cytosol 4 mg/mL): 17.35 and 19.85 and 21.35 | M4 average ([1]; 60min, cytosol 10 mg/mL): 7.4 and 8.2 and 10.05 | [M4] [1, 15]: 7.5 and 7.3 and 8.2 and 10.2 and 9.9 | [M4] [2]: 59.25 nM and 71.3 nM and 48.9 nM | [M4] ([3]; 0 min (Fig. 6cii)): 2.8 nM and 3 nM and 2.75 nM | [M4] ([3]; 5 min (Fig. 6cii)): 3.1 nM and 3.9 nM and 3.3 nM | [M4] ([3]; 10 min (Fig. 6cii)): 4.2 nM and 5.25 nM and 4 nM | [M4] ([3]; 20 min (Fig. 6cii)): 4.6 nM and 6.95 nM and 4.95 nM | [M4] ([3]; 40 min (Fig. 6cii)): 6.1 nM and 9.2 nM and 6.8 nM | [M4] ([3]; 60 min (Fig. 6cii)): 7.5 nM and 10.55 nM and 8.1 nM
SMILES: C[C@@H](c1ccc(N)nc1)n1nnc2ncc(-c3cnn(C)c3)nc21 [Compound M4]
[M4] [1, 13]: 45.1 and 46.3 and 50.7 and 50.2 and 47.8 and 48.7 | [M4] [1, 14]: 17.9 and 16.8 and 19.5 and 20.2 and 21.9 and 20.8

CLint scaled at 1 µM (in vitro [4]): 4.16 mL/min/kg | CLint scaled at 1 µM (in vitro [5]): 2.83 mL/min/kg | hepatocyte CLint at 1 µM (in vitro [6]; both): 2.69 µL/min/1e6 cells | CLint scaled at 1 µM (in vitro [6]; HH_scaled_CLint,u): 8.57 mL/min/kg | fu_HLM [7]: 1 | fu_ratHH (rat hepatocytes): 0.791 | logD (physchem): 0.902 | Papp at 2 h, 10 µM [8]: 60.7 ×10⁻⁶ cm/s
SMILES: CC(=O)CC(c1ccccc1)c1c(O)c2ccccc2oc1=O (centres unmarked) [Warfarin]

[M2] (human hepatocytes (HH) [9]; 5 min (Fig. 2a, 6cii)): 1.4 nM and 2.2 nM and 2.25 nM | [M2] (human hepatocytes (HH) [9]; 10 min (Fig. 2a, 6cii)): 2.85 nM and 3.9 nM and 4.1 nM | [M2] (human hepatocytes (HH) [9]; 20 min (Fig. 2a, 6cii)): 6.15 nM and 6.85 nM and 7.4 nM | [M2] (human hepatocytes (HH) [9]; 40 min (Fig. 2a, 6cii)): 12.1 nM and 12.5 nM and 13.35 nM | [M2] (human hepatocytes (HH) [9]; 60 min (Fig. 2a, 6cii)): 15.75 nM and 16.75 nM and 16.5 nM | M2 average ([1]; 60min, cytosol 0 mg/mL): 12.95 and 12.75 and 12.25 | M2 average ([1]; 60min, cytosol 4 mg/mL): 10.25 and 10.45 and 11.2 | M2 average ([1]; 60min, cytosol 10 mg/mL): 7.45 and 7.9 and 8.9 | [M2] ([1]; 1 h (Fig. 2e)): 9.4 nM and 16.7 nM and 13.4 nM | [M2] [1, 13]: 13.1 and 12.8 and 12.6 and 12.9 and 11.7 | [M2] [10]: 6.15 nM and 6.3 nM and 4.1 nM | [M2] [2]: 12.05 nM and 12.7 nM and 9.9 nM | [M2] ([3]; 0 min (Fig. 6cii)): 0.25 nM and 0.2 nM | [M2] ([3]; 5 min (Fig. 6cii)): 1.7 nM and 2.55 nM and 1.8 nM | [M2] ([3]; 10 min (Fig. 6cii)): 3.5 nM and 5.15 nM and 3.8 nM | [M2] ([3]; 20 min (Fig. 6cii)): 6.7 nM and 10.4 nM and 7.3 nM | [M2] ([3]; 40 min (Fig. 6cii)): 11.35 nM and 17.1 nM and 12.4 nM | [M2] ([3]; 60 min (Fig. 6cii)): 15.15 nM and 22.05 nM and 17 nM | metabolite peak by UV detection (human hepatocytes (HH) [11]): greater than 1%
SMILES: C[C@@H](c1ccc2nccn2c1)n1nnc2ncc(-c3cn[nH]c3)nc21 [Compound M2]
[M2] [1, 14]: 10.4 and 10.1 and 10.6 and 10.3 and 10.9 and 11.5 | [M2] [1, 15]: 7.5 and 7.4 and 8 and 7.8 and 8.5 and 9.3 | metabolite, share of the dose [12]: 60 % of the dose
